Consider one compound from patent US11737466B2, “Method of improving the ability of plants to resistance diseases” (National Taiwan University, priority 2019, dated 2023).

Broadly, the zone of inhibition is the extent of the growth-free halo in a diffusion test.

This assay deals with Bacillus amyloliquefaciens WF02. In words: antagonistic assay (inhibition zone) on Bacillus amyloliquefaciens WF02 plate. Type of assay: cell-based. The conditions noted are these: 100,000 ppm, 20 μL, 37° C., 48 hours, positive control, read-out: diameter of inhibition zone on WF02 plate. From the text: To be used as leveling agents for the biological preparation, in the embodiment of the present invention, it is necessary to confirm that the Bidens pilosa extract of the present invention without the effect of inhibiting the growth of the Bacillus amyloliquefaciens WF02 of the present invention, so antagonistic assay was used; wherein ampicillin is known with the effect on inhibiting the growth of the Bacillus amyloliquefaciens, therefore, it was used as a positive control group. First, the Bacillus amyloliquefacien WF02 of the present invention was cultured in the above method and 100 μL of a bacterial solution with an OD600 value of 0.3, which approximately contains 10^8 CFU/mL, was uniformly applied to two agarose plates (diameter 9 cm) and a plurality of circular sterile filter papers (diameter 8 mm) was placed thereon; wherein one plate was for testing the higher concentration (125,000-200,000 ppm) of the Bidens pilosa of the present invention, and the other was for the lower concentration (300-2,000 ppm). […]

Turning to `CC1(C)S[C@@H]2[C@H](NC(=O)[C@H](N)c3ccccc3)C(=O)N2[C@H]1C(=O)O` [ampicillin], the zone of inhibition at 100000 ppm was about 18.4 mm.
